According to patent US20240408169A1 (priority 2023, published 2024):
*1 amine or outer side, *2 acyl side, *3 side chain or, on linkers, in order; H or OH if unused. Where a SMILES comes first, the peptide text is derived from it. Bridges are numbered along the chain shown (N, C = ends). [ ]: non-standard residue; d: D form. The star is where a group is joined. X58 = CC(C)C(=O)N1CC=C(c2ccc(Cl)cc2C[C@@H](C(=O)[*:2])N(C)[*:1])CC1; X69 = CCOC(=O)N1CC=C(c2ccc(Cl)cc2C[C@@H](C(=O)[*:2])N(C)[*:1])CC1; NMePhe(5-Cl,2-O(2-Pym)) = CN[C@@H](Cc1cc(Cl)ccc1Oc1ncccn1)C(=O)O; X26 = CN([C@@H](Cc1cc(F)ccc1-c1cnn(C2CC2)c1)C(=O)[*:2])[*:1]; X35 = CN([C@@H](Cc1cc(Cl)ccc1-c1cnc2ccnn2c1)C(=O)[*:2])[*:1]; NMehhhLys(Me) = CN([C@@H](CCCCCCCN(C)[*:3])C(=O)[*:2])[*:1]; NMe3Pal(2-OiPr,5-Cl) = CN[C@@H](Cc1cc(Cl)cnc1OC(C)C)C(=O)O; X29 = CN([C@@H](Cc1cc(Cl)ccc1-c1cn[nH]c1)C(=O)[*:2])[*:1]; X44 = Cc1nnc(-c2ccc(Cl)cc2C[C@@H](C(=O)[*:2])N(C)[*:1])o1; NMe(hhhLys) = CN([C@@H](CCCCCCCN[*:3])C(=O)[*:2])[*:1]; Oxane2carbonyl(2R-CF3) = O=C([C@@]1(C(F)(F)F)CCCCO1)*; X28 = CN([C@@H](Cc1cc(Cl)cnc1OC1CCC1)C(=O)[*:2])[*:1]; Cyclobutanecarbonyl(1-CF3) = O=C(C1(C(F)(F)F)CCC1)*; cBuCO(3,3-F2-1-CF3) = O=C(C1(C(F)(F)F)CC(F)(F)C1)*; Pro(trans-4-F) = O=C(O)[C@@H]1C[C@@H](F)CN1; Gly(cPr) = N[C@H](C(=O)O)C1CC1

Assays:
CyclinA2/CDK2 = target: T1, CyclinA2/CDK2 (Homo sapiens, UniProt P20248); experiment: Fluorescence Polarization (FP) competitive binding assay, Cyclin A2/Cdk2; settings: 8 nM Cyclin A2/Cdk2, 2 nM FAM probe; average of 2-3 independent experiments; read-out: Cyclin A FP IC50;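 note: plates equilibrated two hours at room temperature before polarization reading, IC50 fitted from eight-concentration compound titration curves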
T1 construct: purchased CRELUX Protein Services

NCI-H1048 cells = experiment: MTT proliferation assay, NCI-H1048; format: cell-based; settings: 5 days compound exposure, 1:3 serial dilution starting at 10 μM;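 note: Dose-response in 96-well plates over 8 or 10 concentration points, with exposure spanning 3-4 cell doublings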
CyclinE1/CDK2 = target: T2, CyclinE1/CDK2 (Homo sapiens, UniProt P24864); experiment: Fluorescence Polarization (FP) competitive binding assay, Cyclin E1/Cdk2; settings: 10 nM Cyclin E1/Cdk2, 2 nM FAM probe; average of 2-3 independent experiments; read-out: Cyclin E FP IC50;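 note: readings taken after two-hour equilibration at room temperature in HEPES buffer with NaCl, DTT, NP-40 and BSA, IC50 fitted from eight-concentration serial dilution series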
T2 construct: purchased Eurofins, discovery 14-475

OVCAR3 cells = experiment: MTT proliferation assay, OVCAR3; format: cell-based; settings: 5 days compound exposure, 1:3 serial dilution starting at 10 μM;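 note: compound given as an 8- or 10-point series, one day after plating, with exposure covering roughly 3-4 cell doublings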
CyclinB1/CDK1 = target: T3, CyclinB1/CDK1 (Homo sapiens, UniProt P14635); experiment: Fluorescence Polarization (FP) competitive binding assay, Cyclin B1/Cdk1; settings: 10 nM Cyclin B1/Cdk1, 2 nM FAM probe; average of 2-3 independent experiments; read-out: Cyclin B FP IC50;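 note: fluorescence polarization read after equilibration at room temperature, with IC50 taken from serially diluted dose-response curves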
T3 construct: purchased Eurofins, discovery 14-450

WI-38 cells = experiment: MTT proliferation assay, WI-38; format: cell-based; settings: 3 days compound exposure, 1:3 serial dilution starting at 10 μM;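 note: Eight- or ten-point dilution series, with exposure length chosen to span about three to four cell doublings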

CC(C)C[C@@H]1NC(=O)[C@@H](N(C)C(=O)[C@@H](NC(=O)[C@@H]2C[C@@H](F)CN2C(=O)C2(C(F)(F)F)CCC2)C2CC2)CC=CCCCCN(C)C(=O)[C@H](Cc2cc(Cl)cnc2OC(C)C)N(C)C1=O [Example 137]
IC50 (CyclinA2/CDK2): 60 nM | GI50 (NCI-H1048 cells): 600 nM | IC50 (CyclinE1/CDK2): 130 nM | GI50 (OVCAR3 cells): 760 nM | IC50 (CyclinB1/CDK1): 20 nM | GI50 (WI-38 cells): 4580 nM

CC(C)C[C@@H]1NC(=O)[C@@H](N(C)C(=O)[C@@H](NC(=O)[C@@H]2C[C@@H](F)CN2C(=O)C2(C(F)(F)F)CCC2)C2CC2)CCCCCCCNC(=O)[C@H](Cc2cc(Cl)cnc2OC(C)C)N(C)C1=O [Example 138] ({Cyclobutanecarbonyl(1-CF3)}-[Pro(trans-4-F)][Gly(cPr)][NMe(hhhLys)]L[NMe3Pal(2-OiPr,5-Cl)]; lactam 3-C)
IC50 (CyclinA2/CDK2): 30 nM | GI50 (NCI-H1048 cells): 200 nM | IC50 (CyclinE1/CDK2): 110 nM | GI50 (OVCAR3 cells): 280 nM | IC50 (CyclinB1/CDK1): 20 nM | GI50 (WI-38 cells): 6670 nM

CC(C)C[C@@H]1NC(=O)[C@@H](N(C)C(=O)[C@@H](NC(=O)[C@@H]2C[C@@H](F)CN2C(=O)C2(C(F)(F)F)CCC2)C2CC2)CCCCCCCN(C)C(=O)[C@H](Cc2cc(Cl)cnc2OC2CCC2)N(C)C1=O [Example 139] ({Cyclobutanecarbonyl(1-CF3)}-[Pro(trans-4-F)][Gly(cPr)][NMehhhLys(Me)]L[X28]; lactam 3-C)
IC50 (CyclinA2/CDK2): 20 nM | GI50 (NCI-H1048 cells): 70 nM | IC50 (CyclinE1/CDK2): 100 nM | GI50 (OVCAR3 cells): 150 nM | IC50 (CyclinB1/CDK1): 20 nM | GI50 (WI-38 cells): 6420 nM

CC(C)C[C@@H]1NC(=O)[C@@H](N(C)C(=O)[C@@H](NC(=O)[C@@H]2C[C@@H](F)CN2C(=O)C2(C(F)(F)F)CC(F)(F)C2)C2CC2)CCCCCCCN(C)C(=O)[C@H](Cc2cc(Cl)cnc2OC2CCC2)N(C)C1=O [Example 140] ({cBuCO(3,3-F2-1-CF3)}-[Pro(trans-4-F)][Gly(cPr)][NMehhhLys(Me)]L[X28]; lactam 3-C)
IC50 (CyclinA2/CDK2): 20 nM | GI50 (NCI-H1048 cells): 50 nM | IC50 (CyclinE1/CDK2): 120 nM | GI50 (OVCAR3 cells): 130 nM | IC50 (CyclinB1/CDK1): 20 nM | GI50 (WI-38 cells): 9250 nM

CC(C)C[C@@H]1NC(=O)[C@@H](N(C)C(=O)[C@@H](NC(=O)[C@@H]2C[C@@H](F)CN2C(=O)C2(C(F)(F)F)CCC2)C2CC2)CCCCCCCNC(=O)[C@H](Cc2cc(Cl)cnc2OC2CCC2)N(C)C1=O [Example 141] ({Cyclobutanecarbonyl(1-CF3)}-[Pro(trans-4-F)][Gly(cPr)][NMe(hhhLys)]L[X28]; lactam 3-C)
IC50 (CyclinA2/CDK2): 40 nM | GI50 (NCI-H1048 cells): 90 nM | IC50 (CyclinE1/CDK2): 100 nM | GI50 (OVCAR3 cells): 190 nM | IC50 (CyclinB1/CDK1): 20 nM | GI50 (WI-38 cells): 3390 nM

CC(C)C[C@@H]1NC(=O)[C@@H](N(C)C(=O)[C@@H](NC(=O)[C@@H]2C[C@@H](F)CN2C(=O)C2(C(F)(F)F)CC(F)(F)C2)C2CC2)CCCCCCCNC(=O)[C@H](Cc2cc(Cl)cnc2OC2CCC2)N(C)C1=O [Example 142] ({cBuCO(3,3-F2-1-CF3)}-[Pro(trans-4-F)][Gly(cPr)][NMe(hhhLys)]L[X28]; lactam 3-C)
IC50 (CyclinA2/CDK2): 40 nM | GI50 (NCI-H1048 cells): 110 nM | IC50 (CyclinE1/CDK2): 150 nM | GI50 (OVCAR3 cells): 190 nM | IC50 (CyclinB1/CDK1): 20 nM | GI50 (WI-38 cells): 10200 nM

CC(C)C[C@@H]1NC(=O)[C@@H](N(C)C(=O)[C@@H](NC(=O)[C@@H]2C[C@@H](F)CN2C(=O)C2(C(F)(F)F)CC(F)(F)C2)C2CC2)CCCCCCCN(C)C(=O)[C@H](Cc2cc(Cl)ccc2C2=CCN(C(=O)C(C)C)CC2)N(C)C1=O [Example 143] ({cBuCO(3,3-F2-1-CF3)}-[Pro(trans-4-F)][Gly(cPr)][NMehhhLys(Me)]L[X58]; lactam 3-C)
IC50 (CyclinA2/CDK2): 20 nM | GI50 (NCI-H1048 cells): 10 nM | IC50 (CyclinE1/CDK2): 940 nM | GI50 (OVCAR3 cells): 20 nM | IC50 (CyclinB1/CDK1): 20 nM | GI50 (WI-38 cells): 5180 nM

CCOC(=O)N1CC=C(c2ccc(Cl)cc2C[C@H]2C(=O)N(C)CCCCCCC[C@H](N(C)C(=O)[C@@H](NC(=O)[C@@H]3C[C@@H](F)CN3C(=O)C3(C(F)(F)F)CC(F)(F)C3)C3CC3)C(=O)N[C@@H](CC(C)C)C(=O)N2C)CC1 [Example 145] ({cBuCO(3,3-F2-1-CF3)}-[Pro(trans-4-F)][Gly(cPr)][NMehhhLys(Me)]L[X69]; lactam 3-C)
IC50 (CyclinA2/CDK2): 20 nM | GI50 (NCI-H1048 cells): 70 nM | IC50 (CyclinE1/CDK2): 1300 nM | GI50 (OVCAR3 cells): 80 nM | IC50 (CyclinB1/CDK1): 20 nM | GI50 (WI-38 cells): 10100 nM

CC(C)C[C@@H]1NC(=O)[C@@H](N(C)C(=O)[C@@H](NC(=O)[C@@H]2C[C@@H](F)CN2C(=O)[C@@]2(C(F)(F)F)CCCCO2)C2CC2)CCCCCCCN(C)C(=O)[C@H](Cc2cc(F)ccc2-c2cnn(C3CC3)c2)N(C)C1=O [Example 147] ({Oxane2carbonyl(2R-CF3)}-[Pro(trans-4-F)][Gly(cPr)][NMehhhLys(Me)]L[X26]; lactam 3-C)
IC50 (CyclinA2/CDK2): 20 nM | GI50 (NCI-H1048 cells): 10 nM | IC50 (CyclinE1/CDK2): 100 nM | GI50 (OVCAR3 cells): 10 nM | IC50 (CyclinB1/CDK1): 20 nM | GI50 (WI-38 cells): 1240 nM

CC(C)C[C@@H]1NC(=O)[C@@H](N(C)C(=O)[C@@H](NC(=O)[C@@H]2C[C@@H](F)CN2C(=O)C2(C(F)(F)F)CCC2)C2CC2)CCCCCCCN(C)C(=O)[C@H](Cc2cc(Cl)ccc2Oc2ncccn2)N(C)C1=O [Example 159] ({Cyclobutanecarbonyl(1-CF3)}-[Pro(trans-4-F)][Gly(cPr)][NMehhhLys(Me)]L[NMePhe(5-Cl,2-O(2-Pym))]; lactam 3-C)
IC50 (CyclinA2/CDK2): 80 nM | GI50 (NCI-H1048 cells): 10 nM | IC50 (CyclinE1/CDK2): 200 nM | GI50 (OVCAR3 cells): 20 nM | IC50 (CyclinB1/CDK1): 20 nM | GI50 (WI-38 cells): 9450 nM

Cc1nnc(-c2ccc(Cl)cc2C[C@H]2C(=O)NCCCCCCC[C@H](N(C)C(=O)[C@@H](NC(=O)[C@@H]3C[C@@H](F)CN3C(=O)C3(C(F)(F)F)CC(F)(F)C3)C3CC3)C(=O)N[C@@H](CC(C)C)C(=O)N2C)o1 [Example 160] ({cBuCO(3,3-F2-1-CF3)}-[Pro(trans-4-F)][Gly(cPr)][NMe(hhhLys)]L[X44]; lactam 3-C)
IC50 (CyclinA2/CDK2): 20 nM | GI50 (NCI-H1048 cells): 20 nM | IC50 (CyclinE1/CDK2): 270 nM | GI50 (OVCAR3 cells): 20 nM | IC50 (CyclinB1/CDK1): 20 nM | GI50 (WI-38 cells): 11500 nM

CC(C)C[C@@H]1NC(=O)[C@@H](N(C)C(=O)[C@@H](NC(=O)[C@@H]2C[C@@H](F)CN2C(=O)C2(C(F)(F)F)CC(F)(F)C2)C2CC2)CCCCCCCN(C)C(=O)[C@H](Cc2cc(Cl)ccc2-c2cn[nH]c2)N(C)C1=O [Example 167] ({cBuCO(3,3-F2-1-CF3)}-[Pro(trans-4-F)][Gly(cPr)][NMehhhLys(Me)]L[X29]; lactam 3-C)
IC50 (CyclinA2/CDK2): 20 nM | GI50 (NCI-H1048 cells): 10 nM | IC50 (CyclinE1/CDK2): 280 nM | GI50 (OVCAR3 cells): 10 nM | IC50 (CyclinB1/CDK1): 20 nM | GI50 (WI-38 cells): 19700 nM

CC(C)C[C@@H]1NC(=O)[C@@H](N(C)C(=O)[C@@H](NC(=O)[C@@H]2C[C@@H](F)CN2C(=O)C2(C(F)(F)F)CC(F)(F)C2)C2CC2)C/C=C\CCCCN(C)C(=O)[C@H](Cc2cc(Cl)ccc2-c2cnn(C)c2)N(C)C1=O [Example 168]
IC50 (CyclinA2/CDK2): 20 nM | GI50 (NCI-H1048 cells): 10 nM | IC50 (CyclinE1/CDK2): 160 nM | GI50 (OVCAR3 cells): 10 nM | IC50 (CyclinB1/CDK1): 20 nM | GI50 (WI-38 cells): 13100 nM

CC(C)C[C@@H]1NC(=O)[C@@H](N(C)C(=O)[C@@H](NC(=O)[C@@H]2C[C@@H](F)CN2C(=O)C2(C(F)(F)F)CC(F)(F)C2)C2CC2)CCCCCCCN(C)C(=O)[C@H](Cc2cc(Cl)ccc2-c2cnc3ccnn3c2)N(C)C1=O [Example 172] ({cBuCO(3,3-F2-1-CF3)}-[Pro(trans-4-F)][Gly(cPr)][NMehhhLys(Me)]L[X35]; lactam 3-C)
IC50 (CyclinA2/CDK2): 60 nM | GI50 (NCI-H1048 cells): 30 nM | IC50 (CyclinE1/CDK2): 2430 nM | GI50 (OVCAR3 cells): 60 nM | IC50 (CyclinB1/CDK1): 20 nM | GI50 (WI-38 cells): 13700 nM
